In patent US10857105B2, “Compounds and compositions for intracellular delivery of therapeutic agents” (ModernaTX, Inc., priority 2017, dated 2020):

What was measured:
[1] = Particle size and polydispersity index of nanoparticle compositions (Zetasizer Nano ZS); type: physicochemical
Procedure, shortened: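 Size and PDI measured by Zetasizer Nano ZS in 1×PBS (zeta potential in 15 mM PBS). Lipid nanoparticles contained test ionizable lipid:DSPC:cholesterol:PEG-DMG at 50:10:38.5:1.5 mol % with N1-methyl-pseudouridine mRNA encoding luciferase or hEPO.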

[2] = test system: luciferase (Luc) mRNA; assay: Luciferase expression (whole body bioluminescence) after intravenous administration to mice; type: in vivo; conditions: for Novel lipid/MC3 expression ratio, i.v.: intravenous, luciferase, 6 hr. time point, relative to MC3 formulation
Procedure: In order to monitor how effectively various nanoparticle compositions deliver therapeutic and/or prophylactics to targeted cells, different nanparticle compositions including a particular therapeutic and/or prophylactic (for example, a modified or naturally occurring RNA such as an mRNA) are prepared and administered to rodent populations. Mice are intravenously, intramuscularly, intraarterially, or intratumorally administered a single dose including a nanoparticle composition with a formulation such as those provided in Example 3. In some instances, mice may be made to inhale doses. Dose sizes may range from 0.001 mg/kg to 10 mg/kg, where 10 mg/kg describes a dose including 10 mg of a therapeutic and/or, prophylactic in a nanoparticle composition for each 1 kg of body mass of the mouse. A control composition including PBS may also be employed.
Upon administration of nanoparticle compositions to mice, dose delivery profiles, dose responses, and toxicity of particular formulations and doses thereof can be measured by enzyme-linked immunosorbent assays (ELISA), bioluminescent imaging, or other methods. For nanoparticle compositions including mRNA, time courses of protein expression can also be evaluated. Samples collected from the rodents for evaluation may include blood, sera, and tissue (for example, muscle tissue from the site of an intramuscular injection and internal tissue); sample collection may involve sacrifice of the animals.
The efficacy of the nanoparticle compositions presented in Table 1A was evaluated with a bioluminescence study. Formulations were administered intravenously to mice (n=6) at a dosage of 0.5 mg/kg (mpk) and bioluminescence measured at 3, 6, and 24 hour time points. The standard MC3 formulation and, in some instances, a control (e.g., a PBS control) were evaluated for comparison. […] In general, flux decreased as time progressed to less than 10% of the initial flux.
The total flux (measured by area under the curve, AUC) induced by administration of a formulation including a given lipid relative to that induced by administration of a formulation including MC3 was also measured for several lipids.

[3] = Encapsulation efficiency of RNA in nanoparticle compositions (RIBOGREEN assay); type: physicochemical
Procedure, shortened: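 Lipid nanoparticles (ionisable lipid:DSPC:cholesterol:PEG-DMG 50:10:38.5:1.5 mol %) carrying N1-methylpseudouridine luciferase or hEPO mRNA diluted to about 5 μg/mL in TE, pH 7.5, with or without 2% Triton X-100, 15 min at 37° C. RiboGreen fluorescence (ex ~480, em ~520 nm) blank-subtracted; free RNA = intact/disrupted signal.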

[4] = test system: modified luciferase; assay: Luciferase expression in liver, lung, spleen and femur 6 hours after intravenous administration to mice; type: in vivo; conditions: 6 hours after intravenous 0.5 mpk, mice
Procedure, shortened: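 Nanoparticle formulations of the modified luciferase were given intravenously to mice (n=3) at 0.5 mpk. Bioluminescence was measured after 6 hours as total light flux. Standard MC3 formulation and PBS run as controls.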

[5] = Table 1A, lipid:DSPC:cholesterol:PEG-DMG 50:10:38.5:1.5 mol %
[6] = intravenous administration (Table 3D)
[7] = Table 1B, formulated with hEPO mRNA
[8] = Table 1D, compositions for subcutaneous administration, # formulated with hEPO mRNA

SMILES | Size [1, 5] [nm] | EE [3, 5] [%] | Size [1, 7] [nm] | EE [3, 7] [%] | Size ([1]; Table 1E, compositions for subcutaneous administration) [nm] | Size [1, 8] [nm] | Novel lipid/MC3 expression ratio, i.v. [2] | AUC [2, 6] [p/s*h] | Total Flux, Liver [4] | Total Flux, Lung [4] | Total Flux, Spleen [4] | AUC ([2]; i.v. administration (Table 3C)) [h*p/s]
CCCCCCCCCOC(=O)CCCCCCCN(CCCCCCCC(=O)OC(CCCCCCCC)CCCCCCCC)CCCn1cc(CO)nn1 [Compound 218, Heptadecan-9-yl 8-((3-(4-(hydroxymethyl)-1H-1,2,3-triazol-1-yl)propyl)(8-(nonyloxy)-8-oxooctyl)amino)octanoate] | 81.4 | 98.8 | – | – | – | – | >0.01 | – | – | – | – | –
CCCCCCCCCOC(=O)CCCCCCCN(CCCCCCCC(=O)OC(CCCCCCCC)CCCCCCCC)CCCNC(C)=O [Compound 108, Heptadecan-9-yl 8-((3-acetamidopropyl)(8-(nonyloxy)-8-oxooctyl)amino)octanoate] | 119 | 96 | 89.6 | 95.38 | 96.1 | – | 0.40 | – | 4.63E+08 | 9.81E+06 | 7.82E+08 | –
CCCCCCCCC(CCCCCCCC)OC(=O)CCCCCCCN(C)CCCCCCCCCCCC(=O)OCCCCC [Compound 150, Pentyl 12-((8-(heptadecan-9-yloxy)-8-oxooctyl)(methyl)amino)dodecanoate] | 63.1 | 96.72 | – | – | – | – | – | 2.704E+011 | 1.54E+09 | 2.20E+06 | 3.43E+07 | –
CCCCCCCCCOC(=O)CCCCCCCN(CCCCCCCC(=O)OC(CCCCCCCC)CCCCCCCC)CCN1CCOCC1 [Compound 103, Heptadecan-9-yl 8-((2-morpholinoethyl)(8-(nonyloxy)-8-oxooctyl)amino)octanoate] | 78.8 | 90.77 | – | – | – | – | – | – | 8.48E+07 | 2.06E+05 | 2.65E+06 | 2.4E+10
CCCCCCCCC(CCCCCCCC)OC(=O)CCCCCCCN(CCO)CCCCCCCC(=O)OCC(CCCCCCC)OC (centres unmarked) [Compound 148, Heptadecan-9-yl 8-((2-hydroxyethyl)(8-((2-methoxynonyl)oxy)-8-oxooctyl)amino)octanoate] | – | 25.49 | – | – | – | – | – | 4.965E+011 | 4.39E+09 | 3.27E+07 | 2.71E+09 | –
CCCCCCCCCOC(=O)CCCCCCCN(CCO)CCCCCCCC(=O)OC(C)(C)C [Compound 158, tert-Butyl 8-((2-hydroxyethyl)(8-(nonyloxy)-8-oxooctyl)amino)octanoate] | – | 35.70 | – | – | – | – | – | 1.211E+007 | 1.99E+05 | 1.71E+04 | 1.17E+05 | –
CCCCCCCCC(CCCCCCCC)OC(=O)CCCCCCCN(CCO)CCCCCCCC(=O)N(C)CCCCCCCC [Compound 145, Heptadecan-9-yl 8-((2-hydroxyethyl)(8-(methyl(octyl)amino)-8-oxooctyl)amino)octanoate] | – | 89.15 | – | – | – | – | – | – | 5.01E+08 | 1.36E+07 | 4.25E+08 | 8.1E+10
CCCCCCCCC(CCCCCCCC)OC(=O)CCCCCCCN(CCO)CCCCCCCC(=O)OC(C)(C)C [Compound 155, tert-Butyl 8-((8-(heptadecan-9-yloxy)-8-oxooctyl)(2-hydroxyethyl)amino)octanoate] | – | 37.36 | – | – | – | – | – | 1.266E+011 | 8.58E+08 | 1.00E+07 | 2.77E+08 | –
CCCCCCCCCOC(=O)CCCCCCCN(CCO)CCCCCCCOP(=O)(OCCCCCCCC)OCCCCCCCC [Compound 131, Nonyl 8-((7-((bis(octyloxy)phosphoryl)oxy)heptyl)(2-hydroxyethyl)amino)octanoate] | – | 75.44 | – | – | – | – | – | – | 3.52E+08 | 1.45E+07 | 8.32E+08 | 9.29E+10
CCCCCCCCC(CCCCCCCC)OC(=O)CCCCCCCN(CCO)CCCCCC(=O)N(C)CCCCCCCC [Compound 146, Heptadecan-9-yl 8-((2-hydroxyethyl)(6-(methyl(octyl)amino)-6-oxohexyl)amino)octanoate] | 97.0 | 91.94 | – | – | – | – | – | – | 7.24E+06 | 3.88E+06 | 5.11E+07 | 1.04E+09
CCCCCCCCCOC(=O)CCCCCCCN(CCCCCCCC(=O)OC(CCCCCCCC)CCCCCCCC)CCCNC(=O)COC [Compound 178, Heptadecan-9-yl 8-((3-(2-methoxyacetamido)propyl)(8-(nonyloxy)-8-oxooctyl)amino)octanoate] | 104.2 | 94.7 | – | – | – | – | 0.03 | – | – | – | – | –

Continued, in another order:

Size [1, 5] [nm] | EE [3, 5] [%] | Size [1, 7] [nm] | EE [3, 7] [%] | Size ([1]; Table 1E, compositions for subcutaneous administration) [nm] | Size [1, 8] [nm] | SMILES | Novel lipid/MC3 expression ratio, i.v. [2] | AUC [2, 6] [p/s*h] | Total Flux, Liver [4] | Total Flux, Lung [4] | Total Flux, Spleen [4] | AUC ([2]; i.v. administration (Table 3C)) [h*p/s]
92.9 | 94.28 | – | – | – | – | CCCCCCCCCOC(=O)CCCCCCCN(CCCCCCCC(=O)OC(CCCCCCCC)CCCCCCCC)CCOCCO [Compound 154, Heptadecan-9-yl 8-((2-(2-hydroxyethoxy)ethyl)(8-(nonyloxy)-8-oxooctyl)amino)octanoate] | – | 5.560E+010 | 3.62E+08 | 2.89E+06 | 1.30E+07 | –
99.5 | 88.31 | 111.9 | 91.0 | – | – | CCCCCCCCCOC(=O)CCCCCCCN(CCO)CCCCCCCCCC(=O)OC(CCCCCC)CCCCCC [Compound 147, Tridecan-7-yl 10-((2-hydroxyethyl)(8-(nonyloxy)-8-oxooctyl)amino)decanoate] | – | – | 5.24E+09 | 6.73E+06 | 8.57E+07 | 5.63E+11
89.5 | 90.20 | – | – | – | – | CCCCCCCCC(C)OC(=O)CCCCCCCN(CCO)CCCCCCCOC(=O)C(CCCCCCCC)CCCCCCCC (centres unmarked) [Compound 135, 7-((8-(Decan-2-yloxy)-8-oxooctyl)(2-hydroxyethyl)amino)heptyl 2-octyldecanoate] | – | – | 1.65E+10 | 2.71E+07 | 1.39E+08 | 1.25E+12
105.7 | 87.86 | – | – | – | 77.6 | CCCCCCCCCC(=O)OCCCCCCCN(CCO)CCCCCCCOC(=O)C(CCCCCCCC)CCCCCCCC [Compound 151, 7-((7-(Decanoyloxy)heptyl)(2-hydroxyethyl)amino)heptyl 2-octyldecanoate] | – | 7.010E+011 | 4.72E+09 | 9.20E+06 | 9.27E+07 | –
120.5 | 79.04 | – | – | – | 82.6 | CCCCCCCCCC(=O)OCCCCCCCN(CCO)CCCCCCCC(=O)OC(CCCCCCCC)CCCCCCCC [Compound 96, 7-((8-(Heptadecan-9-yloxy)-8-oxooctyl)(2-hydroxyethyl)amino)heptyl decanoate] | – | 1.209E+012 | 1.56E+10 | 3.43E+07 | 3.39E+08 | –
66.0 | 91.48 | – | – | – | – | CCCCCCCCC(CCCCCC)C(=O)OCCCCCCCCCN(CCO)CCCCCCCCCOC(=O)C(CCCCCC)CCCCCCCC (centres unmarked) [Compound 133, ((2-Hydroxyethyl)azanediyl)bis(nonane-9,1-diyl) bis(2-hexyldecanoate)] | – | – | 2.94E+09 | 3.18E+06 | 1.77E+07 | 3.62E+11
85.6 | 94.62 | – | – | – | – | CCCCCCCCCOC(=O)CCCCCCCN(CCO)CCCCCCCCCOC(=O)C(CCCCCC)CCCCCCCC (centres unmarked) [Compound 134, 9-((2-Hydroxyethyl)(8-(nonyloxy)-8-oxooctyl)amino)nonyl 2-hexyldecanoate] | – | – | 1.73E+09 | 2.82E+06 | 1.85E+07 | 3.43E+11
